{
  "source": "paper PMC7720599",
  "about": "“Rhenium N-heterocyclic carbene complexes block growth of aggressive cancers by inhibiting FGFR- and SRC-mediated signalling” (Journal of Experimental & Clinical Cancer Research : CR, 2020)",
  "system": "zebrafish embryos",
  "assay": "Zebrafish embryo teratogenicity",
  "assay_type": "in vivo",
  "conditions": "treatment from 2hpf, images at 24hpf",
  "description": "Embryos were observed daily at 24 h intervals and toxicity scores (hatching and mortality) were recorded until 120hpf. For heart rate assessments, embryos were anesthetized with tricaine (ethyl 3-aminobenzoate methanesulfonate) at 48hpf and counted under the stereomicroscope for 1min. To assess JVG045 teratogenicity compared to BGJ398, embryos were treated with the compounds starting from 2hpf and results observed at 24hpf. Compounds were prepared in DMSO and diluted to the final concentration in E2 embryo medium. DMSO was used as negative control.",
  "data": [
    {"compound": "CCN1CCN(c2ccc(Nc3cc(N(C)C(=O)Nc4c(Cl)c(OC)cc(OC)c4Cl)ncn3)cc2)CC1", "note": "[BGJ398, 3-(2,6-Dichloro-3,5-dimethoxy-phenyl)-1-{6-[4-(4-ethyl-piperazin-1-yl)-phenylamino]-pyrimidin-4-yl}-1-methyl-urea]", "values": [
      {"measurement": "concentration at which developmental defects start", "result": "500 to 1000", "unit": "nM"}
    ]}
  ]
}
